Test results taken from PMC11818225, “Multifaceted Sulfonamide-Derived Thiosemicarbazones: Combining Metal Chelation and Carbonic Anhydrases Inhibition in Anticancer Therapy” (International Journal of Molecular Sciences, 2025).
Entries after “also recorded” stand apart in the source; their conditions may differ. Where two headings read alike, the source gives them in different places.

Key:
SW1573 cells = test: Label-free continuous live cell imaging (holotomographic 3D microscopy); assay type: cell-based, human; conditions: 20 μM, 20 h
Method: Live imaging allows researchers to observe progressive cytostatic effects or cell death of treated cells, enabling the identification of several apoptotic hallmarks. In order to characterize the phenotypic effects of the compounds 4a and 5b on cancer cells, the evolution of the culture was monitored every 3 min using label-free holotomographic 3D microscopy. SW1573 cells were exposed to 4a and 5b at a concentration of 20 μM for 20 h (Supplementary Material, videos S1–S3). Untreated SW1573 cells (control) moved freely and divided throughout the experimental time frame.
The CX-A imaging platform microscope (Nanolive SA, Lausanne, Switzerland) was used to measure refractive indices, creating a holotomographic 3D image of the cells. SW1573 cells were seeded onto 35 mm cell culture imaging dishes (IBIDI GmbH, Gräfelfing, Germany) at a density of 50.000 cells/well. On the next day, treated cells were exposed to the test compounds right before the acquisition of the images. Image data were transferred to FIJI software v2.9.0 (NIH, USA) for image analysis. EVE software v2.2.1.2162 (Nanolive S.A., Tolochenaz, Switzerland)) was used for the analysis of the refractive indices and calculation of the phenotypic parameters.

HeLa (cervix) = test: Antiproliferative SBR assay (NCI protocol), HeLa; assay type: cell-based, human; conditions: Homo sapiens, HeLa; 48 h exposure, n = 3, mean ± SD
From the text: (§1) The latter two represent multidrug-resistant cell lines.

[1] = tested on: SW1573 (non-small cell lung)
Method: The potential antiproliferative activity of sulfonamides synthesized in this study was evaluated in vitro using the SBR assay, following the US NCI protocol. A panel of six tumor cell lines was employed: A549 (non-small cell lung), HBL-100 (breast), HeLa (cervix), SW1573 (non-small cell lung), T-47D (breast), and WiDr (colon). The latter two represent multidrug-resistant cell lines.
Cells were maintained in culture in 60 mm cell culture dishes in growth medium (10 mL) and passaged twice weekly.
The antiproliferative activity of compounds was tested using our implementation of the protocol of the National Cancer Institute (NCI) of the USA. The following seeding densities (cells per well) were used: 2500 (A549, HBL-100, HeLa, and SW1573) and 5000 (T-47D and WiDr). Stock solutions of inhibitors (40 mM) were prepared in pure DMSO (400 times the maximum test concentration).

[2] = tested on: A549 (non-small cell lung); test: Antiproliferative SBR assay (NCI protocol), A549; assay type: cell-based, human; conditions: Homo sapiens, A549; 48 h exposure, n = 3, mean ± SD
From the text: as §1

[3] = tested on: A549, HBL-100, HeLa, SW1573, T-47D, WiDr; test: Antiproliferative SBR assay, panel of six tumor cell lines (summary statements); assay type: cell-based; conditions: Homo sapiens
From the text: as §1

T-47D (breast) = test: Antiproliferative SBR assay (NCI protocol), T-47D; assay type: cell-based, human; conditions: Homo sapiens, T47D; 48 h exposure, n = 3, mean ± SD; multidrug-resistant line
From the text: as §1

HBL-100 (breast) = test: Antiproliferative SBR assay (NCI protocol), HBL-100; assay type: cell-based, human; conditions: Homo sapiens, HBL-100; 48 h exposure, n = 3, mean ± SD
From the text: as §1

WiDr (colon) = test: Antiproliferative SBR assay (NCI protocol), WiDr; assay type: cell-based, human; conditions: Homo sapiens, WiDr; 48 h exposure, n = 3, mean ± SD; multidrug-resistant line
From the text: as §1

human CA II = human CA II (Homo sapiens, UniProt P00918); test: Stopped-flow CO2 hydrase assay, CA II
human CA I = human CA I (Homo sapiens, UniProt P00915); test: Stopped-flow CO2 hydrase assay, CA I
human CA I, sequence (P00915 whole entry): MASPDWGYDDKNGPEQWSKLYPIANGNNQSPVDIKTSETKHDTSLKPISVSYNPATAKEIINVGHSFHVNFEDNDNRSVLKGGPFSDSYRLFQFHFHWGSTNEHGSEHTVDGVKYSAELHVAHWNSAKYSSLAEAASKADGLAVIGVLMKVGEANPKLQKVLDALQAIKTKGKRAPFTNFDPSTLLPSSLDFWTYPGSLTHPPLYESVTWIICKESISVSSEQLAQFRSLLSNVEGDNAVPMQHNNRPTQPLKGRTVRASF

human CA XII = human CA XII (Homo sapiens, UniProt O43570); test: Stopped-flow CO2 hydrase assay, CA XII
human CA XII, sequence (O43570 25-354): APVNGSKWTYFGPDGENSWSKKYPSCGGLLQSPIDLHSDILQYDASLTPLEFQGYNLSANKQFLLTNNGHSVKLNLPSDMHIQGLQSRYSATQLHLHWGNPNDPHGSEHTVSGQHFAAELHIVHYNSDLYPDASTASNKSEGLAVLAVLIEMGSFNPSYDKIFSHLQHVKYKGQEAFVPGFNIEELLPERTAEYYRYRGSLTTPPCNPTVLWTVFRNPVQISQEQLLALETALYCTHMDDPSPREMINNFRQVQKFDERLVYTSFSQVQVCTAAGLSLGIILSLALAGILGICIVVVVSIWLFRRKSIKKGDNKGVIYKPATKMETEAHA

human CA IX = human CA IX (Homo sapiens, UniProt Q16790); test: Stopped-flow CO2 hydrase assay, CA IX
[4] = Metal complexation assay by UV-Vis spectroscopy; assay type: physicochemical; conditions: DMSO, 25 °C
Method: The ability of 5b, as a model compound, to complex metal cations associated with tumorigenesis (Na^+, K^+, Fe^2+, Fe^3+, Zn^2+, and Cu^2+) was analyzed using UV–Vis spectroscopy. To investigate this, UV–Vis spectra of solutions with varying ratios of 5b to metal chlorides (1:0, 4:1, 2:1, 1:1, 1:2, 1:5) were recorded. Additionally, a 1:2 ligand-to-metal spectrum was obtained after 72 h of incubation to account for potential slow complexation. […] For ZnCl2, only a weak effect was observed after incubation, and no significant changes were detected without incubation, regardless of the ligand-to-Zn^2+ ratio (Figure 6C).
The complexation of 5b with different metal chlorides (NaCl, KCl, FeCl2, FeCl3, ZnCl2, and CuCl2) was investigated using UV–Vis spectroscopy (Jasco V-360). The stock solutions of the salts (10^−2 M) and the ligand (2.5 mM) were prepared in pure DMSO and sonicated when necessary. To 20 µL of a 2.5 mM solution of 5b were added different aliquots of the metal chlorides solutions up to a total volume of 2 mL in quartz cuvettes. The following ligand–metal ratios were used: 1:0.25, 1:0.5, 1:1, 1:2, 1:5, and 1:10. The absorbance was monitored at 25 °C in the range 280–440 nm, either with or without incubation. A blank solution without 5b was also prepared for each concentration of the salt, and its spectrum was subtracted from the ligand–salt spectrum.

[5] = range over six tumor cell lines, read-out: GI50 range across all tested cell lines
[6] = read-out: GI50 in five out of six cell lines

For `NS(=O)(=O)c1ccc(NC(=S)N/N=C/c2ccccc2)cc1` [Compound 4a, 1-Phenylmethylene-4-(4′-sulfonamidophenyl)-3-thiosemicarbazone], the “Phenotypic effects on cancer cells” value (SW1573 cells) was “cell division was retarded and apoptotic features were observed in some cells”, the GI50 (HeLa (cervix)) was 2.3 ± 0.2 µM and the GI50 [1] was 2.9 ± 1.4 µM. For the same compound, the GI50 [2] was 5.1 ± 3.7 µM, the GI50 [3, 5] was 2.3 to 5.1 µM and the GI50 (T-47D (breast)) was 2.6 ± 0.1 µM. It also gave a GI50 (HBL-100 (breast)) of 3 ± 1.6 µM and a GI50 (WiDr (colon)) of 4.5 ± 1.4 µM.

`NS(=O)(=O)c1ccc(NC(=S)N/N=C/c2ccccn2)cc1` [Compound 5a, 1-(Pyridin-2′-ylmethylene)-4-(4″-sulfonamidophenyl)-3-thiosemicarbazone] gave a GI50 (HeLa (cervix)) of 5.2 ± 0.3 µM, a GI50 [1] of 4.2 ± 0.1 µM and a GI50 [2] of 18 ± 2 µM. The GI50 [3, 6] was < 10 µM, the GI50 (T-47D (breast)) was 5.7 ± 2.1 µM and the GI50 (HBL-100 (breast)) was 5.2 ± 2.2 µM. For the same compound, the GI50 (WiDr (colon)) was 3.8 ± 0.3 µM.

In the case of `NS(=O)(=O)c1cccc(NC(=S)N/N=C/c2ccccn2)c1` [Compound 5b, 1-(Pyridin-2′-ylmethylene)-4-(3″-sulfonamidophenyl)-3-thiosemicarbazone], the “Phenotypic effects on cancer cells” value (SW1573 cells) is reported as “cell division was retarded and apoptotic features were observed in some cells; also recorded: delayed tumor cell division and features indicative of apoptosis”, the GI50 (HeLa (cervix)) is reported as 5.8 ± 0.4 µM and the GI50 [1] is reported as 7.1 ± 0.4 µM. For the same compound, the Ki (human CA II) was 2.5 nM, the Ki (human CA I) was 538 nM and the GI50 [2] was 10 ± 2 µM. For the same compound, the GI50 [3, 5] was 4.5 to 10 µM, the GI50 [3, 6] was < 10 µM and the Ki (human CA XII) was 5.6 nM. For the same compound, the “Selectivity Ratio I/XII” value (human CA XII; Ki CA I / Ki CA XII) was 96.1, the GI50 (T-47D (breast)) was 5.3 ± 0.7 µM and the Ki (human CA IX) was 4.9 nM. The “Selectivity Ratio I/IX” value (human CA IX; Ki CA I / Ki CA IX) was 109.8, the “Selectivity Ratio II/IX” value (human CA IX; Ki CA II / Ki CA IX) was 0.49 and the “Chelation of Cu2+” value ([4]; CuCl2 titration) was “efficiently chelated; also recorded: efficient ligand for chelating; also recorded: effective chelation”. The “Chelation of Fe2+” value ([4]; FeCl2 titration) was “efficiently chelated; also recorded: to a lesser extent; also recorded: effective chelation”, the “Chelation of Fe3+” value ([4]; FeCl3 titration) was “efficiently chelated; also recorded: to a lesser extent” and the “Chelation of K+” value ([4]; KCl titration) was “does not chelate”. The “Chelation of Na+” value ([4]; NaCl titration) was “does not chelate”, the “Chelation of Zn2+” value ([4]; ZnCl2 titration) was “notably weaker” and the GI50 (HBL-100 (breast)) was 7.8 ± 2 µM. It also gave a GI50 (WiDr (colon)) of 4.5 ± 0.6 µM.
